Assay results taken from patent US4695622A, “Hexapeptide” (Vsesojuzny Kardiologichesky Nauchny Tsentr Akademii …, priority 1984, dated 1987).
Residues, ends and D or L forms follow the SMILES beside them.

Experiments:
[1] = tested on: experimental hemorrhagic pancreonecrosis; experiment: Enzymatic activity in blood serum in experimental hemorrhagic pancreonecrosis (acute pancreatitis model); format: in vivo, dogs
Procedure: (§1) The biological activity of the hexapeptide according to the present invention has been studied in experiments on dogs using an experimental acute pancreatitis model.
(§2) To this end, a similar operation was performed on 10 dogs. Under hexenal narcosis upper-median laparotomy was made. Into the wound a loop of duodenum was introduced with pancreas, cannulated and Wirsung's duct was dressed on a drain Snatorini's duct was additionally dressed too. Then the gall-bladder was punctured, bile was extracted therefrom and injected under pressure into Wirsung's duct at the rate of 0.5 ml per kg of the animal's bodyweight. As a stimulant of the pancreas secretion secretin and cholecystopancreoziimin were used which were intravenously administered at the rate of two units per kg of a dog's bodyweight. For administration of the stimulants of the pancreatic secretion, the hexapeptide according to the present invention and obtaining blood, the femoral vein was catheterized. For the measurement of diuresis and urine examination epicystostomy was effected or both ureters were catheterized. All the experiments were carried out on an empty stomach of the animals.
Prior to introduction of bile into Wirsung's duct, background samples of blood, urina and pancreatic juice were taken for special enzymological investigations. After administration of bile into Wirsung's duct the same biological tests were carried out every hour until the experiment was completed. The activity of the following pancreatic enzymes was studied: α-amylase, lipase, total esterase activity, antitryptic activity.
(§3) 30 minutes after the administration of bile into Wirsung's duct and then every 2 hours small pieces of pancreas tissue were taken from the animals from various sections for morphological investigations. In the second series of experiments 5 dogs were used. A hemorrhagic pancreonecrosis was induced in them and 2 hours after the development of acute pancreatitis an intravenous administration of the hexapeptide according to the present invention was started at the rate of 0.3 mg per kg of the animal's bodyweight. For enzymological and morphological studies the same biological samples and pieces of tissues of the pancreas were taken. The dogs were slaughtered 6-8 hours after the beginning of the experiment.
(§4) In the third series of experiments two dogs were used. The induced experimental pancreatitis was treated by means of the hexapeptide according to the present invention. The same tests were performed, but the dogs were not slaughtered. 24 hours from the beginning of the experiment and then 7 days and 15 days thereafter they were subjected to relaparotomy, the macroscopic view of pancreas was studied, pieces of the tissue of pancreas were taken for morphological studies.
(§5) The effect of the hexapeptide according to the present invention was compared with that of widely employed preparations--5-fluorouracyl an d tracilol--on the same model of acute pancreatitis.

Acute toxicity (LD50) = details: for LD50: acute toxicity, dose causing death of 50% of the animals; for LD50 surpasses the therapeutic dose by: therapeutic dose: 5-fluorouracyl 5 mg/kg, hexapeptide 0.3 mg/kg
[2] = tested on: experimental hemorrhagic pancreonecrosis; experiment: Morphological studies of the pancreas in experimental hemorrhagic pancreonecrosis; format: in vivo, dogs; details: for Morphology of pancreas, early stages of treatment: tracilol 10,000 units per hour, hexapeptide 0.3 mg/kg
Procedure: as §1, §2
Three dogs were used in the control group of the experiments. They were treated to induce an experimental pancreatitis only without administration of the hexapeptide according to the present invention; an acute experiment lasted for 6-8 hours, whereafter the dogs were slaughtered by intracardiac administration of hexenal.
as §3, §4, §5

Solubility of the powder = format: physicochemical
Procedure: The hexapeptide according to the present invention comprises a white powder, well soluble in distilled water, a physiological solution, ethanol; insoluble in ether, ethylacetate, benzene. The melting temperature is 173°-176° C. [α]D^22 =-19.1 (c 0.33 H2 O).

[3] = Effect on cell formula of the blood and immune system; details: in vivo
[4] = dogs, developed pancreonecrosis, hexapeptide 0.3 mg/kg

O=c1[nH]cc(F)c(=O)[nH]1 [5-fluorouracyl, reference compound]
Total esterase activity in blood serum ([1]; dogs (3), 5-fluorouracyl 5 mg/kg i.v., after 4 hours, value for developed pancreonecrosis 0.58 ± 0.07): 0.56 ± 0.02 μM/ml | Activity of lipase in blood serum ([1]; dogs (3), 5-fluorouracyl 5 mg/kg i.v., after 4 hours, value for developed pancreonecrosis 0.62 ± 0.12): 0.48 ± 0.02 units | Antitryptic activity in blood serum ([1]; dogs (3), 5-fluorouracyl 5 mg/kg i.v., after 4 hours, value for developed pancreonecrosis 22.2 ± 1.4): 20.1 ± 1.2 IU | Activity of alpha-amylase in blood serum ([1]; dogs (3), 5-fluorouracyl 5 mg/kg i.v., after 4 hours, value for developed pancreonecrosis 158.0 ± 18.2): 152.2 ± 24.1 mg/h · ml | Total esterase activity in blood serum ([1]; dogs (3), 5-fluorouracyl 5 mg/kg i.v., after 6 hours, value for developed pancreonecrosis 0.58 ± 0.07): 0.58 ± 0.04 μM/ml | Activity of lipase in blood serum ([1]; dogs (3), 5-fluorouracyl 5 mg/kg i.v., after 6 hours, value for developed pancreonecrosis 0.62 ± 0.12): 0.54 ± 0.08 units | Antitryptic activity in blood serum ([1]; dogs (3), 5-fluorouracyl 5 mg/kg i.v., after 6 hours, value for developed pancreonecrosis 22.2 ± 1.4): 20.1 ± 1.2 IU | Activity of alpha-amylase in blood serum ([1]; dogs (3), 5-fluorouracyl 5 mg/kg i.v., after 6 hours, value for developed pancreonecrosis 158.0 ± 18.2): 153.3 ± 17.1 mg/h · ml | Characteristics of activity of enzymes in blood serum (lipase, esterase, antitryptic), in words ([1]; dogs, developed pancreonecrosis, 5-fluorouracyl 5 mg/kg, tracilol 10,000 units/hour): remain substanctially unchanged | LD50 (Acute toxicity (LD50)): 750 mg/kg | LD50 surpasses the therapeutic dose by (Acute toxicity (LD50)): 150 times | Morphology of pancreas 7 days after the beginning of the treatment ([2]; dogs, 5-fluorouracyl 5 mg/kg): pronounced fibrosis of the pancreas with breaking of lobules into fragments | Regeneration of the pancreas ([2]; dogs, 5-fluorouracyl 5 mg/kg, later stages of treatment): incomplete | Morphology of pancreas, early stages of treatment ([2]; dogs, 5-fluorouracyl 5 mg/kg): noticeable inflammatory infiltration of necrotic zones and of the interstice is retained

CC(C)C[C@H](NC(=O)[C@H](Cc1ccccc1)NC(=O)CNC(=O)[C@H](C)NC(=O)[C@@H](N)Cc1ccc(O)cc1)C(=O)N[C@@H](CCCNC(=N)N)C(=O)O [Tyrosyl-alanyl-glycyl-phenylalanyl-leucyl-arginine] (H-YAGFLR-OH)
Total esterase activity in blood serum ([1]; dogs (7), hexapeptide 0.3 mg/kg i.v., after 4 hours, value for developed pancreonecrosis 0.76 ± 0.05): 0.16 ± 0.08 μM/ml | Activity of lipase in blood serum ([1]; dogs (7), hexapeptide 0.3 mg/kg i.v., after 4 hours, value for developed pancreonecrosis 1.15 ± 0.03): 0.25 ± 0.02 units | Antitryptic activity in blood serum ([1]; dogs (7), hexapeptide 0.3 mg/kg i.v., after 4 hours, value for developed pancreonecrosis 26.5 ± 1.3): 78.0 ± 13.1 IU | Activity of alpha-amylase in blood serum ([1]; dogs (7), hexapeptide 0.3 mg/kg i.v., after 4 hours, value for developed pancreonecrosis 178 ± 28.2): 246.2 ± 26.7 mg/n · ml | Total esterase activity in blood serum ([1]; dogs (7), hexapeptide 0.3 mg/kg i.v., after 6 hours, value for developed pancreonecrosis 0.76 ± 0.05): 0.20 ± 0.09 μM/ml | Activity of lipase in blood serum ([1]; dogs (7), hexapeptide 0.3 mg/kg i.v., after 6 hours, value for developed pancreonecrosis 1.15 ± 0.03): 0.40 ± 0.05 units | Antitryptic activity in blood serum ([1]; dogs (7), hexapeptide 0.3 mg/kg i.v., after 6 hours, value for developed pancreonecrosis 26.5 ± 1.3): 72.0 ± 2.5 IU | Activity of alpha-amylase in blood serum ([1]; dogs (7), hexapeptide 0.3 mg/kg i.v., after 6 hours, value for developed pancreonecrosis 178 ± 28.2): 258.2 ± 33.2 mg/n · ml | Activity of lipase in blood serum (in words) [1, 4]: sharply reduced | Increase of the antitryptic activity (in words) [1, 4]: three-time increase | Total esterase activity of blood (in words) [1, 4]: lowered | Synthesis of pancreatic enzymes in acute pancreatitis ([1]; dogs, hexapeptide): effectively inhibits | Solubility (Solubility of the powder; benzene): insoluble | Solubility (Solubility of the powder; distilled water): well soluble | Solubility (Solubility of the powder; ethanol): well soluble | Solubility (Solubility of the powder; ether): insoluble | Solubility (Solubility of the powder; ethylacetate): insoluble | Solubility (Solubility of the powder; physiological solution): well soluble | LD50 (Acute toxicity (LD50)): 150 mg/kg | LD50 surpasses the therapeutic dose by (Acute toxicity (LD50)): 500 times | Morphology of hemorrhagic pancreonecrosis one day after the treatment ([2]; dogs, hexapeptide i.v.): positive dynamics | Regeneration of the acinar tissue ([2]; dogs, hexapeptide, 14 days after the beginning of the treatment): complete regeneration of the acinar tissue | Morphology of pancreas, early stages of treatment ([2]; dogs, 5-fluorouracyl 5 mg/kg): absence of signs of hemorrhagic zones of necrosis and hemorrhages into the interstice | Antipancreonecrotic activity ([2]; overall conclusion): exhibits an antipancreonecrotic activity | Cell formula of the blood [3]: does not change the cell formula of the blood | Pathological responses on the part of the immune system [3]: does not cause pathological responses | Processes of homeopoiesis [3]: does not inhibit the processes of homeopoiesis
